Test results from patent US20140121278A1, “ANTI-TUMOR AGENT OTX-008 TARGETS HUMAN GALECTIN-1” (REGENTS OF THE UNIVERSITY OF MINNESOTA, priority 2012, published 2014).
Where two headings read alike, the source gives them in different places.

Assays:
Jurkat E6.1 cells = assay: Agglutination assay, gal-1 induced; type: cell-based; details: Homo sapiens, 20 μM OTX-008, 1 μM gal-1, 22° C., read-out: inhibition of cell agglutination
Procedure: FIG. 7 depicts Jurkat E6.1 cells agglutination as induced by addition of 1 μM gal-1 and incubated at 22° C. on plastic, round bottom chamber slides (Nunc, Naperville, Ill., USA), in medium alone or in the presence of 20 μM OTX-008 (“0118”).
Agglutination Assay. Jurkat E6.1 cells (2×10^6/200 μL RPMI 1640 medium) agglutination was induced by 1 μM gal-1 and were incubated on plastic round bottom chamber slides (Nunc, Naperville, Ill., USA) in medium alone or with 20 μM OTX-008 at 22° C. Subsequently the cells were analyzed for agglutination with an Axiovert 10 inverted phase microscope equipped with a digital camera system (Zeiss, Germany), and digitally analyzed and differentially quantified by morphometric analysis, as described earlier (Dings et al., 2008, Cancer Lett; 265(2):270-280; and Dings et al., 2010, Bioconjugate Chem; 21(1):20-27).

human cancer cell lines = assay: Cell viability assay (MTT); type: cell-based; details: 72 h drug exposure, 48 h wash-out
From the text: FIGS. 8A-8C illustrate the concentration of OTX-008 (“0118”) required for inhibiting cell viability is proportional to Gal-1 expression. FIG. 8A illustrates the anti-viability effects (expressed as % change in cell numbers over time) of OTX-008 using the MTT assay in human cancer cell lines. FIG. 8B illustrates cancer cells that are sensitive to OTX-008 expressed […] galectin-1 protein expression as determined using Western Blot analysis. FIG. 8C illustrates that concentration of OTX-008, as established by plotting the IC50 in cancer cells, is proportional to their relative LGALS1 mRNA expression as assessed by qRT-PCR.
Cell lines. HEP2, SQ20B, HT29, DU145, and SKHEP1 cells were obtained from the ATCC (Rockville, Md., USA). COL0205-S cells were obtained from the National Cancer Institute collection. […]
Cell viability assay. Cell viability (i.e. cell proliferation and/or cytotoxicity) was determined using the MTT assay (3-[4,5-dimethylthiazol-2-yl]-2,5-diphenyltetrazolium bromide; Sigma, Saint-Quentin Fallavier, France). […] After incubation, the supernatant was discarded, insoluble formazan precipitates were dissolved in 0.1 mL of DMSO and the absorbance was measured at 560 nm by use of a microplate reader (Thermo, France). […] IC50 was determined as half the maximal inhibitory drug concentration for each cell line.

[1] = target: T1, gal-1 binding to cell surface glycans on splenocytes (CD4+ and CD8+ leukocytes, CD31+ endothelial cells) (Homo sapiens, UniProt P09382); assay: Flow cytometry: FITC-gal-1 binding to cell surface glycans on splenocytes; type: cell-based, gal-1 null mice; details: for inhibition at 20 µM: 20 μM OTX-008, 0.1 μM gal-1; for inhibition at 100 µM: 100 μM OTX-008
T1 construct: made in house; host or cells: E. coli BL21 (DE3) (the only gal-1 preparation described)
Procedure: FIGS. 6A and 6B depict the results of flow cytometry used to assess the effects of OTX-008 (“0118”) on FITC-gal-1 binding to splenocytes (CD4+ and CD8+ leukocytes and CD31+ endothelial cells). FIG. 6A illustrates the binding of FITC-gal-1 (0.1 μM or 0.2 μM) to these cells as a function of OTX-008 concentration. FIG. 6B illustrates the binding to CD4+ and CD8+ leukocytes and CD31+ endothelial cells derived from male or female gal-1−/− null mice. FITC-Galectin-1 preparation. Gal-1 was conjugated with fluorescein isothiocyanate (FITC) using a FITC:protein molar ratio of 10:1. Gal-1 (2 mg/ml) was dissolved in […] of 20 mM potassium phosphate buffer, pH 7.4, followed by addition of approximately 50 μL FITC (10 mg/ml) that had been dissolved in 0.1 mM sodium bicarbonate. The resulting lower pH (approximately pH 8) ensured selective labeling at the N-terminal amine group of the protein (Hungerford et al., 2007, Photochem Photobiol Sci; 6(2):152-158; and Hermanson, 2008, Bioconjugate Techniques, 2nd ed.; Academic Press: Burlington, Mass. Part 1, 1202 pp). This solution was then mixed thoroughly and incubated at room temperature (22° C.) for 18 hours in the dark. During the course of the reaction, the mixture was gently vortexed 3 or 4 times. The resulting FITC-labeled protein was separated from unbound dye by filtration using an Amicon Ultra cellulose filter (Millipore, 10 kDa cut-off). […] Flow Cytometry. Male and female gal-1 null mice (Jackson Laboratory) were provided water and standard chow ad libitum and were maintained on a 12-hour light/dark cycle prior to experiments that were approved by the University of Minnesota Research Animal Resources Ethical Committee. For FACS experiments, spleens from these mice (6-10 weeks old) were harvested and non-enzymatically disrupted by shear force to yield single-cell suspensions (Dings et al., 2011, Clin Cancer Res; 17(10):3134-3145). Cell suspensions were prepared in Hanks's balanced solution. Red blood cells were lysed in ACK (Lonza Walkersville) for 5 minutes on ice and suspensions were filtered through nylon mesh. Spleen cells were then washed and incubated with monoclonal antibodies as indicated for 40 minutes on ice. After an additional washing step, various concentrations of gal-1 (with or without OTX-008) were added and incubated for 30 minutes on ice. Prior to FACS analysis, cell suspensions were washed once more and analyzed by multi-parameter flow cytometry on a LSR II flow cytometer (BD Biosciences) using Flowjo software (Tree Star, Inc.) (Dings et al., 2011, Clin Cancer Res; 17(10):3134-3145).

[2] = Phase I clinical trial with terminal cancer patients; type: in vivo, human; details: preliminary, daily subcutaneous injection, 1 mg/Kg
From the text: In an embodiment, OTX-008 is a therapeutic agent for use against cancer. As a therapeutic agent, calixarene OTX-008 is a significant improvement over both Anginex and 6DBF7, as well as over any carbohydrate-based compound, for multiple reasons. OTX-008 (937 Da) approaches the generally accepted definition of a “small molecule” (i.e. <500 Da). OTX-008 should have better in vivo exposure, because it is non-peptidic and non-carbohydrate, and therefore is non-hydrolyzable. Moreover, because of its aryl-crown structure, OTX-008 should be chemically stable and less likely to be metabolized in vivo than any peptide or carbohydrate-based compound. […] In an embodiment, OTX-008 is a promising anti-tumor agent that targets galectin-1 as a first-in-class therapeutic agent.

human galectin-1 (gal-1) = target: T2, human galectin-1 (gal-1) (Homo sapiens, UniProt P09382); assay: 1H-15N HSQC NMR binding of OTX-008 to 15N-labeled gal-1; details: total gal-1 monomer 60 μM, pH 7.0, 30° C., HSQC intensity changes averaged over all resonances; read-out: Kd, estimate from mid-point of saturable binding curve (free OTX-008 at 50% intensity change)
T2 construct: made in house; host or cells: E. coli BL21 (DE3)
Procedure: Galectin-1 preparation. […] Typically, 44 milligrams of purified protein were obtained from 1 liter of cell culture. The purity of the final sample was quantified by using the Biorad protein assay and was checked for purity by using SDS PAGE. Functional activity of the purified protein was assessed by a T-cell death assay (Nesmelova et al., 2008, Biomol NAR Assignments; 2(2):203-205).
Heteronuclear NMR Spectroscopy. […]
NMR experiments were carried out at 30° C. on a Varian Unity Inova 600-MHz spectrometer equipped with an H/C/N triple-resonance probe and x/y/z triple-axis pulse field gradient unit. […] Raw data were converted and processed by using NMRPipe (Delaglio et al., 1995, J Biomol NMR; 6(3):277-293) and were analyzed by using NMRview (Johnson, 2004, Methods Mol Biol; 278:313-352).
Although an accurate equilibrium ligand dissociation constant, Kd cannot always be determined from data such as these, a plot of OTX-008-induced intensity changes averaged over all resonances vs. the concentration of OTX-008 does yield a saturable binding curve (inset of FIG. 2). […]

[3] = read-out: inhibition of gal-1 binding to CD4+ (or CD8+) cells
[4] = read-out: inhibition of gal-1 binding to CD31+ cells

T1 sequence (P09382 whole entry): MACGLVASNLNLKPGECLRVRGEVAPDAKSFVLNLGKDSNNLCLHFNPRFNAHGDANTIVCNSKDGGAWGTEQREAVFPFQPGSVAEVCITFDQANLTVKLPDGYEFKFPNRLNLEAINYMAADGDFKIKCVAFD
T2 sequence (P09382 whole entry): as above

- inhibition at 20 µM [1, 3]: ~80%
- inhibition at 20 µM [1, 4]: ~50%
- inhibition at 100 µM [1, 3]: 100%
- inhibition at 100 µM [1, 4]: ~70%
- half-life ([2]; human, in vivo, sc): ~48 h
- Kd (human galectin-1 (gal-1)): ~30 µM
SMILES: CN(C)CCNC(=O)COc1c2cccc1Cc1cccc(c1OCC(=O)NCCN(C)C)Cc1cccc(c1OCC(=O)NCCN(C)C)Cc1cccc(c1OCC(=O)NCCN(C)C)C2 [OTX-008]
- inhibition at 20 µM (Jurkat E6.1 cells): ~80%
- inhibition of cell viability on several cell types in culture (human cancer cell lines): dose-dependent
- disease state [2]: apparent stabilization of disease state
- toxicity [2]: absence of toxicity
